# Test results as given in patent publication US9238034B2, “FN14 antagonists and therapeutic uses thereof” (THE TRANSLATIONAL GENOMICS RESEARCH INSTITUTE, priority 2013, dated 2016).
# Read-outs that look alike come from different tables or passages of the source.
# How the values were obtained:
# Fn14-TWEAK binding = biological target: T1, Fn14-TWEAK binding (Homo sapiens, UniProt Q9NP84); experiment: Double sandwich ELISA small molecule screening of TWEAK binding to captured Fn14-Fc
# T1 construct: the human Fc fragment-tagged Fn14 extracellular domain (R&D Systems) was captured; purchased R&D Systems (Fn14-Fc); Peprotech (recombinant TWEAK)
# T1 sequence (Q9NP84 28-80 limits assumed): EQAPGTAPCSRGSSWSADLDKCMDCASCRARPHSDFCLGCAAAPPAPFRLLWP
# How it was run: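 Fn14-Fc (human Fc-tagged extracellular domain) captured on anti-human Fc wells; compounds at 25 μM (0.125% DMSO) preincubated 2 h at room temperature, then TWEAK added to 500 pg/mL final for 2 h. Bound TWEAK detected with biotinylated anti-TWEAK antibody, HRP-streptavidin and chemiluminescence; binding reduction calculated from a per-plate recombinant TWEAK standard curve.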
# T98G glioma cells = experiment: Cell migration assay, modified Boyden chamber, TWEAK induced; format: cell-based, human; conditions: 10 μM, 5 hours
# Method: Cell Migration Assay. The effect of pharmacological inhibition of TWEAK/Fn14 signaling on glioma cell migration was analyzed using a modified Boyden chamber (Neuroprobe, Cabin John, Md.) as described previously (Lamszus, K., et al. (1998) Journal international du cancer 75, 19-28; Brockmann, M. A., et al. (2003) Neurosurgery 52, 1391-1399). Each well contains a […] pore size Nucleopore filter that had been coated with 50 μg/mL PureCol® (Bovine Collagen) (Advanced Biomatrix, Poway, Calif.). T98G glioma cells were treated with selected drug compound for 1 hr and then seeded at 4.8×10^4 cells in 100 μL of DMEM with 0.1% bovine serum assay medium to the top well of the chamber. TWEAK was added to the lower wells of the chamber using DMEM with 0.1% bovine serum albumin as assay medium. After incubation for 5 hours at 37° C., nonmigrated cells were scraped off the upper side of the filter, and filters were stained with 4′,6-diamidino-2-phenylindole (DAPI). Nuclei of migrated cells were counted in 5 high-power fields (HPF) with a 20× objective. Values were assessed in triplicate.
smiles,measurement,setting,value
O=C(c1cn(-c2cccc(Cl)c2)nn1)N1CCSCC1 [Compound L524-0366],inhibition at 25 µM,"Fn14-TWEAK binding; Table 4, second screening iteration, 25 μM, average of duplicate, read-out: % Reduction in TWEAK Binding, Average",16.9%
same,inhibition at 25 µM,"Fn14-TWEAK binding; Table 4, second screening iteration, 25 μM, replicate 1, read-out: % Reduction in TWEAK Binding, Data 1",18.8%
same,inhibition at 25 µM,"Fn14-TWEAK binding; Table 4, second screening iteration, 25 μM, replicate 2, read-out: % Reduction in TWEAK Binding, Data 2",14.9%
same,inhibition at 25 µM,"Fn14-TWEAK binding; Table 5, 25 μM, average of duplicate, read-out: % Reduction in TWEAK Binding, Average",16.9%
same,inhibition at 25 µM,"Fn14-TWEAK binding; Table 5, 25 μM, replicate 1, read-out: % Reduction in TWEAK Binding, Data 1",18.8%
same,inhibition at 25 µM,"Fn14-TWEAK binding; Table 5, 25 μM, replicate 2, read-out: % Reduction in TWEAK Binding, Data 2",14.9%
same,TWEAK-induced T98G cell migration,T98G glioma cells,completely suppressed
